Results published in patent publication US8592374B2, “Neurotrophic peptides” (Research Foundation for Mental Hygiene, Inc., priority 2007, dated 2013).

Tests used:
GCL of the dentate gyrus = assay: MAP2 and synaptophysin expression in the GCL (mean pixel intensity), Example 4; assay type: in vivo, mice; settings: 30-day treatment
Excerpt: The following primary antibodies were used for immunohistochemistry: anti-BrdU (1:400; Accurate) a rat monoclonal raised against BrdU; anti-DCX (1:200; Santa Cruz Biotechnology Inc.), a goat polyclonal antibody raised against an 18-amino acid peptide representing residues 384-410 of human doublecortin; anti-NeuN (1:500; Chemicon), a mouse monoclonal antibody raised against purified cell nuclei from mouse brain; Anti-c-Fos (Ab-5) (1:500; Calbiochem), a rabbit polyclonal antibody raised against a synthetic peptide corresponding to amino-acids 4-17 of human c-Fos; SMI52 (1:1000; Sternberger Monoclonals), a mouse monoclonal antibody specific for the mature neuronal marker MAP2a,b; anti-synaptophysin, SYN (1:200; Chemicon), a mouse monoclonal antibody raised against vesicular fraction of bovine brain. […]
For MAP2 and Synaptophysin IR, the entire area of GCL was outlined on every 10th section. Maximum projection images were then generated based on confocal z-stacks, and the antibody staining was quantitated by measuring mean pixel intensity (MPI) with the help of Image-Pro Plus 5.0 software (Media Cybernetics).

[1] = tested on: granule cell layer of the dentate gyrus; assay: Stereological counts of DCX-, BrdU-NeuN- and c-Fos-NeuN-IR cells in the granule cell layer; assay type: in vivo, mice
Experimental: (§1) To study neurogenesis, mice received subcutaneous implants of extended release depot pellets containing either CNTF peptides 6a or 6c for 30 days of continuous dosing (Innovative Research of America, Sarasota, Fla.). For control groups, the pellets consisted of the carrier biopolymer only. For implantation, the mice were anesthetized with 2.5% Avertin (0.38 ml for a 25 g animal). Under sterile conditions, the pellets were then subcutaneously implanted along the anterolateral aspect of the right shoulder with a precision trochar (Innovative Research of America). The animals were then transferred to the animal colony after recovery from anesthesia. There were no complications associated with the implantation and treatment. BrdU was given as two daily i.p. injections (100 mg/kg/dose) for five days starting on day 2 of peptide treatment. Neurogenesis was assessed in the dentate gyrus (DG) by counting the number of BrdU-immunoreactive (BrdU-IR), BrdU-DCX-IR and BrdU-NeuN-IR cells in various layers of the DG. Employing principles of unbiased stereology, the optical fractionator method was used to estimate cell counts for the DG.
The following primary antibodies were used for immunohistochemistry: anti-BrdU (1:400; Accurate) a rat monoclonal raised against BrdU; anti-DCX (1:200; Santa Cruz Biotechnology Inc.), a goat polyclonal antibody raised against an 18-amino acid peptide representing residues […] of human doublecortin; anti-NeuN (1:500; Chemicon), a mouse monoclonal antibody raised against purified cell nuclei from mouse brain; Anti-c-Fos (Ab-5) (1:500; Calbiochem), a rabbit polyclonal antibody raised against a synthetic peptide corresponding to amino-acids 4-17 of human c-Fos; SMI52 (1:1000; Sternberger Monoclonals), a mouse monoclonal antibody specific for the mature neuronal marker MAP2a,b; anti-synaptophysin, SYN (1:200; Chemicon), a mouse monoclonal antibody raised against vesicular fraction of bovine brain. The following secondary antibodies were used: Alexa 488-conjugated goat anti-mouse IgG antibody and Alexa 594-conjugated goat anti-rabbit or anti-rat IgG antibody (Molecular Probes); biotinylated anti-rat IgG antibody and Cy5-conjugated goat anti-mouse antibody (Jackson ImmunoResearch).
(§2) Immunohistochemistry was performed as described elsewhere (Kuhn et al., J. Neurosci 17 (15) (1997): 5820-5829). Briefly, every 5th brain section was chosen for quantification of cell number and every 10th section was chosen for staining intensity scanning. Immunohistochemistry was performed on free floating sections. For BrdU immunohistochemistry, epitope retrieval and staining were performed as previously described (Kuhn et al., J. Neurosci 17 (15) (1997): 5820-5829).
For BrdU-DCX-, BrdU-NeuN-, and c-Fos-NeuN-IR cells, only GCL (consisting of iGCL and oGLC described above) was counted using 100× oil objective in every 10th section. To ensure objectivity, z-stacks were collected for each double IR cell and analyzed later by generating maximum projection and 3D constructs.

[2] = tested on: neural progenitor cells of the dentate gyrus; assay: Stereological counts of BrdU-IR cells in subregions of the hippocampus, 30-day pellets; assay type: in vivo, mice
Experimental: All in vivo studies for characterization of peptides (stereology and behavioral analysis) were performed on 8-10-month-old female retired breeders of C57Bl6 background. The animals were acclimatized for at least 3 weeks to exclude occasional pregnant mice from the studies. Mice were group-housed (3 animals per cage) with a 12:12 light:dark cycle and with free access to food and water. All procedures were conducted in accordance with approved protocols from our institutional Animal Welfare Committee.
as §1
At the end of treatment, all animals were anesthetized with an overdose of sodium pentobarbital and transcardially perfused with 0.1 M PBS. After perfusion, the brains were removed from the skull, the left hemisphere was immediately frozen for future biochemical analysis and the right hemisphere was fixed in 4% paraformaldehyde in 0.1 M PBS for at least 24 hours at room temperature. Tissues were then stored in 30% sucrose solutions at 4° C. until sectioning. The brains were sectioned sagittaly on a freezing sliding microtome at […] through the entire hippocampus and the sections were stored in glycol anti-freeze solution (Ethylene glycol, glycerol and 0.1 M PBS in 3:3:4 ratio) at −20° C. till further processing.
as §2
Neurogenesis was assessed in the DG by counting the number of BrdU-immunoreactive (BrdU-IR), BrdU-DCX-IR and BrdU-NeuN-IR cells in various layers of the DG. The granule cell layer (GCL) was subdivided into an inner and outer half (iGCL and oGCL). The iGCL consisted of the subgranular zone (SGZ, defined as a 2-3 nuclei thick layer bordering the GCL) and the inner half of the GCL adjacent to the Hilus (Hil); the outer GCL (oGCL) was defined as the half of the GCL adjacent to the Molecular layer (Mol). A cell in the middle of the GCL was considered part of the iGCL and a cell bordering the GCL in the Mol was included in oGCL counts. […] Hil included the superficial polymorphic layer.
All sections were collected using the random uniform sampling scheme. For BrdU-IR cells, counting was performed on every 5th section using 40× oil objective of a Nikon 90i fluorescent microscope equipped with Nikon C1 three laser confocal system and a Nikon DS U1 digital camera. Employing principles of unbiased stereology, the optical fractionator method was used to estimate cell counts for the DG (West et al., Anat Rec 231 (1991): 482-497). […]

normal adult mice = assay: Morris Water Maze task, CNTF 6a / CNTF 6c pellets 30 days; assay type: in vivo
Experimental: For behavioral studies, performance on the Morris Water Maze task was assessed in three groups of 10 mice each (placebo, CNTF6a and CNTF6c) which received peptide treatment for 30 days. To avoid daily stress due to injections, all animals undergoing behavioral studies received subcutaneous implants of CNTF 6a, CNTF 6c or placebo pellets as described above.
All animals for behavioral testing were coded such that the experimentator was blind to the assignment of the animals to specific treatment groups. The Morris Water Maze procedure was performed using a 110 cm diameter circular tank. Before training, the mice were handled gently for 2-3 min/day during 3 days to minimize non-specific stress. Acquisition was started with the submerged (invisible) escape platform in the North-East quadrant and each animal was given 60 sec to find the submerged escape platform. […] Five such acquisition trials were given on each day, for four consecutive days. A test for retention, or probe trial, was given 24 hours later. During the probe trial the mouse was allowed to swim in the tank without the escape platform for 60 seconds. This was followed by second and third probe trials 15 and 30 days from the first probe trial. Each probe trial was immediately followed by a “retraining session” consisting of 5 trials/animal to consolidate learned behavior.
The measures of learning were the time and distance swum to reach the escape platform. For retention during the probe trial, the tank was divided into four imaginary quadrants and a small zone where the escape platform had been (virtual platform). The measures of retention were the percent of time spent and the percent of distance swum in each quadrant, and the number of entries into the platform zone.
Mouse behavior in the Morris Water Maze was monitored by a Samsung Digital Camera (SDC 4304) mounted to the ceiling and tracked and timed by a SMART (Pan Lab/San Diego Instruments) version 2.0.14 software.
Since normal adult mice were used as experimental animals, it was crucial not to miss any effect on memory acquisition and learning that the 30-day peptide treatment might have had. Therefore, a partial training paradigm was used to evaluate learning and memory in the Morris Water Maze. Treated mice were trained on the Morris Water Maze for a total of 20 sessions spanning 4 days after which they were subjected to the first probe trial (P1). Two additional probe trials (P2 and P3) were administered 15 and 30 days after P1. […] Learning was evaluated in terms of latency and distance traveled to reach the invisible escape platform. Retention was measured on probe trials by the percent of time and travel distance in the target quadrant, and the number of crossings of the virtual platform.

[3] = 30-day treated mice (n = 5/group)
[4] = 30-day pellets, 50 nmol/peptide/animal/day

Ac-DGGL-NH2 [CNTF 6c]
increase of MAP2 expression in the GCL (mean-pixel intensity) (GCL of the dentate gyrus): 31%
increase of synaptophysin expression in the GCL (mean-pixel intensity) (GCL of the dentate gyrus): 26%
Stereological counts (±SEM) of cells expressing DCX in the granule cell layer [1, 3]: 656 ± 43
Stereological counts (±SEM), NeuN-BrdU/BrdU in the granule cell layer [1, 3]: 39 ± 2
Stereological counts (±SEM) of c-fos-NeuN cells in the granule cell layer ([1]; 30-day treated mice (n = 5/group), basal activity): 247 ± 23
increase in BrdU-NeuN-IR cells in the GCL compared with placebo ([1]; 30-day treatment): 62%
increase of DCX-IR cells in the GCL compared to placebo ([1]; 30-day treatment): ~91%
increase in number of mature neurons (NeuN-IR) co-expressing c-fos in the GCL ([1]; 30-day treatment, without behavioral stimulation): ~47%
BrdU-IR cells in oGCL, Mol or Hil compared to control ([2]; 30-day pellets): no significant differences
increase of BrdU-IR cell counts in the GCL compared to placebo [2, 4]: 31%
increase of number of BrdU-IR cells in the iGCL compared to control [2, 4]: 45%
Stereological counts (±SEM) of BrdU-IR cells, GCL [2, 3]: 560 ± 24
Stereological counts (±SEM) of BrdU-IR cells, Hil [2, 3]: 121 ± 16
Stereological counts (±SEM) of BrdU-IR cells, Mol [2, 3]: 487 ± 28
Stereological counts (±SEM) of BrdU-IR cells, iGCL [2, 3]: 486 ± 31
Stereological counts (±SEM) of BrdU-IR cells, oGCL [2, 3]: 74 ± 10
learning in the spatial reference memory task (swim latencies) (normal adult mice; 30-day pellets, 20 training sessions over 4 days): no effect
percent time spent in the target quadrant across three probe trials (normal adult mice; P1, P2, P3): spent the same percent amount of time in the target quadrant
